Experiments:
[1] = Microdialysis experiments in rat brain; assay type: in vivo; conditions: 3 mg/kg PO as sodium salt, Sprague Dawley rats
Protocol: The goal of the current study was to evaluate levels of sGC stimulators of the invention in the hippocampus and striatum interstitial fluid (ISF), as well as in the circulating plasma after administration to Sprague Dawley male rats. To do so, rats were implanted with microdialysis probes in the hippocampus and striatum and a jugular vein cannula (JVC). After the collection of one pre-dose ISF sample, animals were dosed with sGC stimulator. Samples were collected for 24 hours through a hippocampal and striatal probe as well as serial plasma sampling collected through the JVC after administration. All collected samples were stored at −80° C. waiting for analysis on compound levels in the dialysate.
Five Sprague Dawley rats pre-cannulated with a jugular vein cannula were used for this study. Upon arrival, rats were group-housed in polycarbonate cages (2-3/cage) and acclimated for at least 3 days prior to commencing studies. Animals were housed in a 12 hr light/dark cycle with room temperature maintained at 22+2° C. and approximately 50% humidity and received food and water ad libitum. Rats were tracked via unique identifying numbers. Experiments were conducted in accordance with protocols approved by the Institutional Animal Care and Use Committee of Charles River Laboratories South San Francisco. […]

[2] = tested on: MPTP-induced cognitive deficits; test: Chronic low dose MPTP-lesioned macaque model of cognitive deficits in Parkinson's disease; assay type: in vivo, cynomolgus macaques; conditions: 3.0 mg/kg oral daily monotherapy
Text: This study was a non-GLP study in the chronic low dose MPTP-lesioned macaque model of Parkinson's disease. This model has been described in the literature (https://www.ncbi.nlm.nih.gov/pmc/articles/PMC3282499/). The study was designed to assess effects of Compound I-14, administered as monotherapy, on performance of the following cognitive tasks: variable delayed response (VDR), continuous performance (CPT), visual discrimination reversal learning (SDR) and object retrieval (OR). The study was conducted in animals that had received prior treatment with low doses of MPTP and were known to have difficulties in the performance of the above-mentioned tasks. These studies utilised four male cynomolgus macaques with MPTP-induced cognitive deficits. The study had 4 parts. The first part of the study was to collect baseline data from the four animals on the four tasks to be studied. The second part of the study was to administer vehicle (sterile, filtered distilled water) over a 16 day period and collect vehicle data on the four tasks once per week for two weeks. In the third part of the study, Compound I-14 was administered orally daily for five days and then data were collected on the four tasks once per week for two weeks, with continued daily administration of Compound I-14 (3.0 mg/kg) 2 hrs. prior to each days testing. In the final part of the study, there was a 9 day washout period and then data were collected on the four tasks once per week for two weeks. One dose of Compound I-14 was assessed as monotherapy (3.0 mg/kg) following five days of pre-dosing and daily dosing for two weeks. The effects of the treatment on cognitive performance was assessed 2 hrs. after daily drug administration and during drug washout. MPTP-HCl was administered by i.v. injection at doses ranging from 0.05 mg/kg to 0.30 mg/kg, 2 to 3 times per week for several months. MPTP administration continued until cognitive deficits appeared with minimal/mild parkinsonian motor impairment. Animals were considered “cognitively impaired” if they show at least a 15% decrease in cognitive task performance from pre-MPTP baseline levels. Because response to MPTP is somewhat idiosyncratic, MPTP was administered to effect (i.e., development of cognitive deficits and then development of motor deficits), rather than given for a particular duration of exposure or a particular cumulative dose of MPTP. […] The measure recorded for each session is: 1) total number of trials needed to learn the initial discrimination (i.e. reach the specified criterion of 14/16 correct, and; 2) total number of trials needed to learn (i.e., reach the same criterion as mentioned above) the reversal in which the previously negative (unrewarded) stimulus is now the positive (rewarded) stimulus (i.e., reach criterion). […]

Cc1cc(F)c(Cc2nc(-c3ncc(F)c(O)n3)cn3ccnc23)cc1F [Compound I-14, 5-fluoro-2-(8-(2,5-difluoro-4-methylbenzyl)imidazo[1,2-a]pyrazin-6-yl)pyrimidin-4-ol]
side effects of the treatment [1]: No obvious side effects | Simple discrimination performance [2]: not significantly changed | number of trials needed to reach criterion to learn the discrimination reversal [2]: significantly reduced | animals failing to learn the discrimination reversal ([2]; four animals): none of the animals failed to learn the reversal | SDR (discrimination reversal) performance ([2]; tested 2 hrs after dosing): significantly improved performance

Reference: patent publication US20240207265A1, “TREATMENT OF CNS DISEASES WITH sGC STIMULATORS” (Tisento Therapeutics Inc., priority 2021, published 2024)
